Where “and” joins values, the source holds several entries; their conditions need not be identical. Equal values may be shown once.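 Exposure lasted 48 hours, with cells grown in 96-well plates and compounds tested at five concentrations. GI50 marks 50% less growth. Definition used: TGI = concentration required for complete inhibition of growth.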 Bounds are passed on as bounds.

TGI and GI50 data for 5 compounds are collected here from PubChem BioAssay (NCI).

Some test systems named below: DLD-1 colon; M19-MEL melanoma; SNB-78 CNS; DMS 273 small cell lung; SN12K1 renal; DMS 114 small cell lung; LXFL 529 NSCLC; RXF-631 renal.
Test in all cases: NCI anticancer screen, dose series, 48 h

As for `S=C(NCCCCCCNC(=S)Nc1c2ccccc2nc2ccccc12)Nc1c2ccccc2nc2ccccc12`, the TGI with DLD-1 colon is more than 100 µM; in the assay with M19-MEL melanoma, more than 100 µM; in the assay with SNB-78 CNS, more than 100 µM; with DMS 273 small cell lung it was more than 100 µM; in the assay on SN12K1 renal it was more than 25.1 µM.

Consider `CCN(CC)/C(=C\Cl)Nc1ccccn1`, for which the TGI in the assay on DLD-1 colon, with DMS 114 small cell lung, in the assay with M19-MEL melanoma, in the assay on LXFL 529 NSCLC, in the assay with SNB-78 CNS and in the assay on DMS 273 small cell lung was more than 100 µM in each case. In the assay on RXF-631 renal, the TGI was more than 100 µM.

On to `Cc1c2c(cc3c1[nH]c1ccccc13)C(c1ccc(F)cc1)=NCC2`, for which the TGI in the assay on DLD-1 colon was found to be 6.45 µM; with DMS 114 small cell lung it was 2.41 µM; in the assay on M19-MEL melanoma, 5.44 µM; in the assay on SNB-78 CNS it was 9.03 µM; with DMS 273 small cell lung it was 2.29 µM; in the assay with SN12K1 renal it was 2.16 µM.

Consider `CN1CCC23c4ccccc4NC1C21CCN(C)C3Nc2ccccc21`, for which the TGI in the assay on DLD-1 colon is more than 375 µM; in the assay with DMS 114 small cell lung it was more than 375 µM; with M19-MEL melanoma it was more than 375 µM; with SNB-78 CNS it was more than 158 µM; with DMS 273 small cell lung, more than 375 µM; in the assay with SN12K1 renal, more than 275 µM.

As for `Cc1c(N)nc([C@H](CC(N)=O)NC[C@H](N)C(N)=O)nc1C(=O)N[C@H](C(=O)N[C@H](C)[C@@H](O)[C@H](C)C(=O)N[C@H](C(=O)NCCc1nc(-c2nc(C(=O)NCCC[S+](C)C)cs2)cs1)[C@@H](C)O)C(OC1OC(CO)C(O)C(O)C1OC1OC(CO)C(O)C(OC(N)=O)C1O)c1cnc[nH]1` (some centres undefined), the GI50 is more than 29 µM in the assay with DLD-1 colon; 1.29 µM in the assay with DMS 114 small cell lung; 12.9 µM with M19-MEL melanoma; more than 29 µM with LXFL 529 NSCLC; more than 29 µM in the assay with SNB-78 CNS; 0.0709 µM in the assay on DMS 273 small cell lung. Besides, the GI50 in the assay on RXF-631 renal is 0.372 µM. For the same compound, the TGI with DLD-1 colon was 23.7 µM and > 29 µM; in the assay with DMS 114 small cell lung it was 5.68 µM and 29 µM; with M19-MEL melanoma it was 25 µM and 29 µM; with LXFL 529 NSCLC, 23.6 µM and > 29 µM; in the assay with SNB-78 CNS, 24.9 µM and > 29 µM; in the assay with DMS 273 small cell lung it was 7.82 µM and 29 µM. The TGI in the assay on SN12K1 renal was 21 µM; in the assay on RXF-631 renal, 17.7 µM and 10.4 µM.
